Source: paper PMC3430621, “HPLC–MS/MS Analysis of a Traditional Chinese Medical Formulation of Bu-Yang-Huan-Wu-Tang and Its Pharmacokinetics after Oral Administration to Rats” (PLoS ONE, 2012)
Like-named read-outs stand apart in the source and are kept apart here.

Assays:
[1] = Pharmacokinetics in conscious freely moving rats after oral administration of BYHWT extract (HPLC-MS/MS of plasma); format: in vivo, Sprague-Dawley rats; details: for Cl / Cmax / Tmax / half-life: male, Sprague-Dawley
Text: The protocol listed below has been reviewed and approved by the Institutional Animal Care and Use Committee (IACUC; approval number 1010409) by the Institutional Animal Experimentation Committee of the National Yang-Ming University. Male pathogen-free Sprague-Dawley rats (250±50 g body weight) were obtained from the Laboratory Animal Center of National Yang Ming University. The animals had free access to food (Laboratory rodent diet 5P14, PMI Feeds, Richmond, IN, USA) and water was allowed at all times. All animal experiments followed the National Yang-Ming University guidelines and procedures for the care of laboratory animals. […] Experimental rats were initially anesthetized with pentobarbital (50 mg/kg, i.p.), and polyethylene tubing was implanted in the right jugular vein for blood sampling. The tube crossed the subcutaneous tissue and was fixed at its exit from the dorsal neck region. The patency tubing was maintained by filling with heparinized saline (20 units/mL). After surgery, the rats were placed in experimental cages and allowed to recuperate for one day. The rats were kept fasted for 12 h and water were available ad libitum before the BYHWT administration. […] In our study, the dose of BYHWT (10 g/kg) was appropriate for oral administration in rats. […] The condensed blood collection in the absorption phase is to figure out the maximum concentration and the time when it reaches the maximum concentration. The time points in the elimination phase are not close. This strategy is commonly used in the pharmacokinetic studies but the total blood consumption should not be over 20% of body blood. In these experimental rats, the total blood sampling volume is within 20% during 12 h. Plasma was separated by centrifuging the blood sample at 6000 rpm for 10 min at 4°C. […] The samples were vortexed and centrifuged at 16,100×g for 10 min. In our micro-analysis, less than 200 μL is needed. Actually, the collected blood volume is around 120-150 μL for each time point. After centrifugation, the plasma samples (50 μL) were vortex-mixed with 100 μL of acetonitrile. The supernatants were collected and filtered. Around 20 μL aliquot of the supernatants was transferred into the vial for analysis by HPLC-MS/MS system. The acetonitrile but not the real sample was used in the needle pre-wash standard procedure [19]. The LC-MS/MS system consisted of an Agilent 1100 series LC with automatic liquid chromatographic sampler, injector, bi-pump and degasser; and Applied Biosystems/MDS Sciex API 3000 tandem quadrupole mass spectrometry equipped with electrospray ionization (ESI) interface using the following parameters: nebulizer gas (NEB):10, curtain gas (CUR): 7, collisionally activated dissociation gas (CAD): 12, ionspray voltage (IS): 5000 V, turbo ionspray temperature (TEM): 450°C. Nitrogen was used in all cases. The mass spectrometer was operated in the positive ion detection mode. […] The following linear gradient program was applied to the analyte with the mobile phase consisting of methanol (0.1% formic acid, solvent A) and NH4OAc (0.1% formic acid, solvent B): 0-1 min: 30-70% A; 1-2 min 70-90%; 2-8 min: 90-90%; 8-9 min: 90-30%, 9-18 min: 30-30%, v/v. […] The flow rate was maintained at […]. Pharmacokinetic parameters including maximum plasma concentration (Cmax), time to reach the maximum concentrations (Tmax), half-life (t1/2), area under concentration-time curve (AUC) and oral clearance (CL) were estimated by a non-compartmental analysis using the pharmacokinetic program, WinNonlin Standard Edition Version 1.1 (Scientific Consulting, Apex, NC, USA). All results were expressed as average mean ± standard deviation (S.D.). ANOVA was used to evaluate differences, and a value of P<0.05 was taken as statistically significant.

[2] = Stability of the analytes in rat plasma samples (freeze-thaw, short-term, long-term, autosampler); format: in vitro ADME; details: n = 3; for Stability (%) Autosampler stability: autosampler 8°C 12 h; for Stability (%) Short-term stability: room temperature 6 h; for Stability (%) Freeze-thaw stability: three freeze-thaw cycles; for Stability (%) Long-term stability: −20°C 14 days
Procedure: Stability was also assessed using the low, medium and high concentrations of analytes. Freeze-thaw stability was assessed over three freeze-thaw cycles. Short-term stability was determined by placing the samples at room temperature for 6 h. Long-term stability was evaluated by analyzing samples kept at −20°C for 14 days. Autosampler stability was determined by maintaining the samples at the autosampler temperature (8°C) for 12 h. All stabilities were calculating as the ratio of average concentration and freshly prepared samples.

[3] = rat plasma, BYHWT extract 10 g/kg p.o.
[4] = po, rat plasma, BYHWT extract 10 g/kg p.o., n = 6, read-out: Cmax
[5] = po, rat plasma, BYHWT extract 10 g/kg p.o., n = 6, read-out: Tmax (converted)
[6] = po, rat plasma, BYHWT extract 10 g/kg p.o., n = 6, read-out: t1/2

SMILES: CC(=O)OC1C(O)COC(OC2CCC34CC35CCC3(C)C(C6(C)CCC(C(C)(C)O)O6)C(O)CC3(C)C5CC(OC3OC(CO)C(O)C(O)C3O)C4C2(C)C)C1OC(C)=O (stereo not drawn) [Astragaloside I, astragaloside I]
- Cl ([1]; rat, in vivo, po): 90.5 ± 14 mL/min/kg
- Cmax ([1]; rat, in vivo, po, 10 g/kg): 55 ± 7.8 ng/mL
- Tmax ([1]; rat, in vivo, po, 10 g/kg): 40 min
- half-life ([1]; rat, in vivo, po, 10 g/kg): 166 ± 28 min
- AUC ([1]; rat, in vivo, po, 10 g/kg): 277 ± 43.3 ng·h/mL
- Stability (%) Autosampler stability ([2]; concentration 1 (µg/mL)): −5.3±7.9%
- Stability (%) Short-term stability ([2]; concentration 1 (µg/mL)): −3.6±8.0%
- Stability (%) Freeze-thaw stability ([2]; concentration 1 (µg/mL)): 4.6±3.6%
- Stability (%) Long-term stability ([2]; concentration 1 (µg/mL)): −14±17%
- Stability (%) Autosampler stability ([2]; concentration 10 (µg/mL)): 4.3±6.6%
- Stability (%) Short-term stability ([2]; concentration 10 (µg/mL)): −4.1±10%
- Stability (%) Freeze-thaw stability ([2]; concentration 10 (µg/mL)): 3.8±2.7%
- Stability (%) Long-term stability ([2]; concentration 10 (µg/mL)): −8.3±2.3%
- Stability (%) Autosampler stability ([2]; concentration 100 (µg/mL)): −4.9±7.0%
- Stability (%) Short-term stability ([2]; concentration 100 (µg/mL)): −6.4±6.4%
- Stability (%) Freeze-thaw stability ([2]; concentration 100 (µg/mL)): −1.8±5.4%
- Stability (%) Long-term stability ([2]; concentration 100 (µg/mL)): −27±12%

SMILES: CC(=O)O[C@H]1[C@H](O[C@H]2CC[C@]34C[C@]35CC[C@]3(C)[C@@H]([C@@]6(C)CC[C@@H](C(C)(C)O)O6)[C@@H](O)C[C@@]3(C)[C@@H]5C[C@H](O[C@@H]3O[C@H](CO)[C@@H](O)[C@H](O)[C@H]3O)[C@H]4C2(C)C)OC[C@@H](O)[C@@H]1O [Astragaloside II, astragaloside II]
- Cl ([1]; rat, in vivo, po): 129 ± 15 mL/min/kg
- Cmax ([1]; rat, in vivo, po, 10 g/kg): 30 ± 4.9 ng/mL
- Tmax ([1]; rat, in vivo, po, 10 g/kg): 37 min
- half-life ([1]; rat, in vivo, po, 10 g/kg): 212 ± 14 min
- AUC ([1]; rat, in vivo, po, 10 g/kg): 190 ± 38.3 ng·h/mL
- Stability (%) Autosampler stability ([2]; concentration 1 (µg/mL)): 13±10%
- Stability (%) Short-term stability ([2]; concentration 1 (µg/mL)): 2.4±12%
- Stability (%) Freeze-thaw stability ([2]; concentration 1 (µg/mL)): 4.4±3.6%
- Stability (%) Long-term stability ([2]; concentration 1 (µg/mL)): 8.7±10%
- Stability (%) Autosampler stability ([2]; concentration 10 (µg/mL)): −0.3±11%
- Stability (%) Short-term stability ([2]; concentration 10 (µg/mL)): −1.3±1.9%
- Stability (%) Freeze-thaw stability ([2]; concentration 10 (µg/mL)): −2.3±0.8%
- Stability (%) Long-term stability ([2]; concentration 10 (µg/mL)): −0.8±16%
- Stability (%) Autosampler stability ([2]; concentration 100 (µg/mL)): −5.4±13%
- Stability (%) Short-term stability ([2]; concentration 100 (µg/mL)): −6.8±5.7%
- Stability (%) Freeze-thaw stability ([2]; concentration 100 (µg/mL)): 0.4±1.2%
- Stability (%) Long-term stability ([2]; concentration 100 (µg/mL)): 1.7±21%

SMILES: CC(C)(O)[C@@H]1CC[C@](C)([C@H]2[C@@H](O)C[C@@]3(C)[C@@H]4C[C@H](O[C@@H]5O[C@H](CO)[C@@H](O)[C@H](O)[C@H]5O)[C@H]5C(C)(C)[C@@H](O[C@@H]6OC[C@@H](O)[C@H](O)[C@H]6O)CC[C@@]56C[C@@]46CC[C@]23C)O1 [Astragaloside IV, astragaloside IV]
- Cmax ([1]; in vivo, po, rat plasma, BYHWT extract 10 g/kg p.o., n = 6, read-out: Cmax): 100 ± 16 ng/mL
- Tmax ([1]; in vivo, po, rat plasma, BYHWT extract 10 g/kg p.o., n = 6, read-out: Tmax (converted)): 35 min
- half-life ([1]; in vivo, po, rat plasma, BYHWT extract 10 g/kg p.o., n = 6, read-out: t1/2): 170 ± 8.3 min
- absorption phase in the plasma concentration-time curve [1, 3]: double-peak absorption phase
- Stability (%) Autosampler stability ([2]; concentration 1 (µg/mL)): 3.8±9.8%
- Stability (%) Short-term stability ([2]; concentration 1 (µg/mL)): 12±15%
- Stability (%) Freeze-thaw stability ([2]; concentration 1 (µg/mL)): −3.2±5.0%
- Stability (%) Long-term stability ([2]; concentration 1 (µg/mL)): −17±5.3%
- Stability (%) Autosampler stability ([2]; concentration 10 (µg/mL)): 3.3%
- Stability (%) Short-term stability ([2]; concentration 10 (µg/mL)): 4.7±6.2%
- Stability (%) Freeze-thaw stability ([2]; concentration 10 (µg/mL)): −4.1±3.4%
- Stability (%) Long-term stability ([2]; concentration 10 (µg/mL)): −6.3±8.8%
- Stability (%) Autosampler stability ([2]; concentration 100 (µg/mL)): −8.6±12%
- Stability (%) Short-term stability ([2]; concentration 100 (µg/mL)): 1.6±9.1%
- Stability (%) Freeze-thaw stability ([2]; concentration 100 (µg/mL)): 6.1±0.4%
- Stability (%) Long-term stability ([2]; concentration 100 (µg/mL)): 2.1±13.5%

SMILES: COc1ccc(-c2coc3cc(O)ccc3c2=O)cc1O [Calycosin, calycosin]
- Cmax [1, 4]: 1230 ± 171 ng/mL
- Tmax [1, 5]: 40 min
- half-life [1, 6]: 75 ± 11 min
- absorption phase in the plasma concentration-time curve [1, 3]: single and plateau absorption phase
- AUC ([1]; rat plasma, BYHWT extract 10 g/kg p.o., n = 6): 5130 ± 1220 ng·h/mL
- Stability (%) Autosampler stability ([2]; concentration 10 (µg/mL)): −3.5±11%
- Stability (%) Short-term stability ([2]; concentration 10 (µg/mL)): 1.4±11%
- Stability (%) Freeze-thaw stability ([2]; concentration 10 (µg/mL)): 9.6±4.7%
- Stability (%) Long-term stability ([2]; concentration 10 (µg/mL)): 2.5±5.7%
- Stability (%) Autosampler stability ([2]; concentration 100 (µg/mL)): −2.2±3.5%
- Stability (%) Short-term stability ([2]; concentration 100 (µg/mL)): 14±12%
- Stability (%) Freeze-thaw stability ([2]; concentration 100 (µg/mL)): 8.6±3.8%
- Stability (%) Long-term stability ([2]; concentration 100 (µg/mL)): 17±5.2%
- Stability (%) Autosampler stability ([2]; concentration 1000 (µg/mL)): 7.1±4.9%
- Stability (%) Short-term stability ([2]; concentration 1000 (µg/mL)): 13±7.3%
- Stability (%) Freeze-thaw stability ([2]; concentration 1000 (µg/mL)): 2.9±4.5%
- Stability (%) Long-term stability ([2]; concentration 1000 (µg/mL)): 21±12%

SMILES: COc1ccc(-c2coc3cc(O[C@@H]4O[C@H](CO)[C@@H](O)[C@H](O)[C@H]4O)ccc3c2=O)cc1O [Calycosin-7-O-β-D-glucoside, calycosin-7-O-β-D-glucoside]
- Cmax [1, 4]: 18 ± 4.1 ng/mL
- Tmax [1, 5]: 32 min
- half-life [1, 6]: 338 ± 132 min
- absorption phase in the plasma concentration-time curve [1, 3]: single and plateau absorption phase
- Stability (%) Autosampler stability ([2]; concentration 1 (µg/mL)): −8.4±12%
- Stability (%) Short-term stability ([2]; concentration 1 (µg/mL)): 2.5±11%
- Stability (%) Freeze-thaw stability ([2]; concentration 1 (µg/mL)): 5.8±6.1%
- Stability (%) Long-term stability ([2]; concentration 1 (µg/mL)): 6.4±12%
- Stability (%) Autosampler stability ([2]; concentration 10 (µg/mL)): 2.1±9.1%
- Stability (%) Short-term stability ([2]; concentration 10 (µg/mL)): 7.3±12%
- Stability (%) Freeze-thaw stability ([2]; concentration 10 (µg/mL)): 4.9±3.5%
- Stability (%) Long-term stability ([2]; concentration 10 (µg/mL)): 23±13%
- Stability (%) Autosampler stability ([2]; concentration 100 (µg/mL)): 3.5±7.9%
- Stability (%) Short-term stability ([2]; concentration 100 (µg/mL)): −0.1±0.9%
- Stability (%) Freeze-thaw stability ([2]; concentration 100 (µg/mL)): 7.0±1.2%
- Stability (%) Long-term stability ([2]; concentration 100 (µg/mL)): 20±12%

SMILES: O=c1[nH]cnc2nc[nH]c12 [hypoxanthine]
- observed in rat plasma after oral administration of BYHWT ([1]; preliminary experiments): could not be observed
